Assay results reported in US9580463B2 (BRISTOL-MYERS SQUIBB COMPANY, priority 2013, dated 2017).
Like-named read-outs stand apart in the source and are kept apart here.

System: HCV genotype 1b (Con1) replicon in HUH-7 cells
Assay: HCV replicon luciferase reporter assay, genotype 1b
Assay type: cell-based
Settings: Hepatitis C virus, 72 h, genotype 1b replicon, 3 days incubation
Excerpt: An HCV replicon whole cell system was established as described by Lohmann V, Korner F, Koch J, Herian U, Theilmann L, Bartenschlager R., Science 285(5424):110-3 (1999) and modified to introduce a luciferase reporter, as first described by Krieger et al (Krieger N, Lohmann V, and Bartenschlager R, J. Virol. 75(10):4614-4624 (2001)). CDNA encoding a humanized form of the Renilla luciferase gene and a linker sequence fused directly to the 3′-end of the luciferase gene were introduced into the replicon construct using an Asc1 restriction site located in core, directly upstream of the neomycin marker gene. The adaptive mutation at position 1179 (serine to isoleucine) was also introduced (Blight K J, Kolykhalov, A A, Rice, C M, Science 290(5498):1972-1974). A stable cell line constitutively expressing this HCV replicon construct was generated by first linearizing plasmid DNAs with ScaI. RNA transcripts were synthesized in vitro using the T7 MegaScript transcription kit (Ambion, Austin, Tex.) according to manufacturer's directions. In vitro transcripts of the cDNA were transfected into the human hepatoma cell line, HUH-7. […] Resulting cell lines were characterized for positive and negative strand RNA production and protein production over time. […]
HCV replicon luciferase assays were developed to monitor the inhibitory effects of compounds described in the disclosure on HCV genotypes 1a and 1b viral replication. HUH-7 cells, constitutively expressing the HCV replicon, were grown in Dulbecco's Modified Eagle Media (DMEM) (Gibco-BRL) containing 10% Fetal calf serum (FCS) (Sigma) and 1 mg/mL G418 (Gibco-BRL). Compounds were serially diluted 3 folds in DMSO for a twenty-point titration and subsequently transferred to sterile 384-well tissue-culture treated plates (Corning cat #3571). The plates were then seeded with 50 μL of cells at a density of 3.0×10^3 cells/well in DMEM containing 4% FCS (final DMSO concentration at 0.5%). After 3 days incubation at 37° C., cells were analyzed for Renilla Luciferase activity using the EnduRen as substrate (Promega cat #E6485). The EnduRen substrate was diluted in DMEM and then added to the plates to a final concentration of 7.5 μM. The plates were incubated for 2 hrs at 37° C. and then read immediately for 30 seconds with Viewlux Imager (PerkinElmer) using a luminescence program. To assess cytotoxicity of compounds, CC50 values were generated by multiplexing the EnduRen-containing plates with Cell Titer-Blue (Promega, cat # G8082). Cell-Titer Blue (3 μL) was added to each well and incubated for 8 hrs at 37° C. The fluorescence signal from each well was read, with an excitation wavelength at 525/10 nm and an emission wavelength of 598/10 nm, using the Viewlux Imager.
The EC50 values for compounds were calculated by using a four-parameter logistic equation: y=A+((B−A)/(1+((C/x)^D))), where A and B denotes minimal and maximal % inhibition, respectively, C is the EC50, D is the hill slope and x represents compound concentration.

SMILES	EC50 (read-out: LE_1b (EC50, range)) [nM]	EC50 (read-out: LE_1b (EC50)) [nM]
COC[C@@H]1C[C@H](C)CC/C=C\[C@@H]2C[C@@]2(C(=O)NS(=O)(=O)C2(C)CC2)NC(=O)[C@@H]2C[C@@H](Oc3nc(OC)c4c(OC)cccc4n3)CN2C(=O)[C@H]1NC(=O)OC(C)(C)C [Compound 1061, tert-butyl ((2R,6S,7R,9R,13aS,14aR,16aS,Z)-2-((4,5-dimethoxyquinazolin-2-yl)oxy)-7-(methoxymethyl)-9-methyl-14a-(((1-methylcyclopropyl)sulfonyl)carbamoyl)-5,16-dioxo-1,2,3,5,6,7,8,9,10,11,13a,14,14a,15,16,16a-hexadecahydrocyclopropa[e]pyrrolo[1,2-a][1,4]diazacyclopentadecin-6-yl)carbamate]	5.01 to 35	–
CCOc1cnc(O[C@@H]2C[C@H]3C(=O)N[C@]4(C(=O)NS(=O)(=O)C5(C)CC5)C[C@H]4/C=C\CC[C@@H](C)C[C@@H](COC)[C@H](NC(=O)OC(C)(C)C(F)(F)F)C(=O)N3C2)c2ccc(OC)cc12 [Compound 1066, 1,1,1-trifluoro-2-methylpropan-2-yl ((2R,6S,7R,9R,13aS,14aR,16aS,Z)-2-((4-ethoxy-6-methoxyisoquinolin-1-yl)oxy)-7-(methoxymethyl)-9-methyl-14a-(((1-methylcyclopropyl)sulfonyl)carbamoyl)-5,16-dioxo-1,2,3,5,6,7,8,9,10,11,13a,14,14a,15,16,16a-hexadecahydrocyclopropa[e]pyrrolo[1,2-a][1,4]diazacyclopentadecin-6-yl)carbamate]	0.1 to 0.5	–
COC[C@@H]1C[C@@H](C)CC/C=C\[C@@H]2C[C@@]2(C(=O)NS(=O)(=O)C2(C)CC2)NC(=O)[C@@H]2C[C@@H](Oc3nc4cc(OC(C)C)ccc4nc3C(F)(F)F)CN2C(=O)[C@H]1NC(=O)OC(C)(C)C(F)(F)F [Compound 1057, 1,1,1-trifluoro-2-methylpropan-2-yl ((2R,6S,7R,9S,13aS,14aR,16aS,Z)-2-((7-isopropoxy-3-(trifluoromethyl)quinoxalin-2-yl)oxy)-7-(methoxymethyl)-9-methyl-14a-(((1-methylcyclopropyl)sulfonyl)carbamoyl)-5,16-dioxo-1,2,3,5,6,7,8,9,10,11,13a,14,14a,15,16,16a-hexadecahydrocyclopropa[e]pyrrolo[1,2-a][1,4]diazacyclopentadecin-6-yl)carbamate]	5.01 to 35	–
CCOc1ccc2nc(C(F)(F)F)c(O[C@@H]3C[C@H]4C(=O)N[C@]5(C(=O)NS(=O)(=O)C6(C)CC6)C[C@H]5/C=C\CC[C@H](C)C[C@@H](COC)[C@H](NC(=O)OC(C)(C)C(C)(F)F)C(=O)N4C3)nc2c1 [Compound 1051, 3,3-difluoro-2-methylbutan-2-yl ((2R,6S,7R,9S,13aS,14aR,16aS,Z)-2-((7-ethoxy-3-(trifluoromethyl)quinoxalin-2-yl)oxy)-7-(methoxymethyl)-9-methyl-14a-(((1-methylcyclopropyl)sulfonyl)carbamoyl)-5,16-dioxo-1,2,3,5,6,7,8,9,10,11,13a,14,14a,15,16,16a-hexadecahydrocyclopropa[e]pyrrolo[1,2-a][1,4]diazacyclopentadecin-6-yl)carbamate]	1.01 to 5	–
CCOc1cnc(O[C@@H]2C[C@H]3C(=O)N[C@]4(C(=O)NS(=O)(=O)C5(C)CC5)C[C@H]4/C=C\CC[C@H](C)C[C@@H](COC)[C@H](NC(=O)OC(C)(C)C(C)(F)F)C(=O)N3C2)c2ccc(OC)cc12 [Compound 1067, 3,3-difluoro-2-methylbutan-2-yl ((2R,6S,7R,9S,13aS,14aR,16aS,Z)-2-((4-ethoxy-6-methoxyisoquinolin-1-yl)oxy)-7-(methoxymethyl)-9-methyl-14a-(((1-methylcyclopropyl)sulfonyl)carbamoyl)-5,16-dioxo-1,2,3,5,6,7,8,9,10,11,13a,14,14a,15,16,16a-hexadecahydrocyclopropa[e]pyrrolo[1,2-a][1,4]diazacyclopentadecin-6-yl)carbamate]	–	0.5
